Test results reported in patent US12246026B2, “Ganaxolone for use in treatment of status epilepticus” (Marinus Pharmaceuticals, Inc., priority 2019, dated 2025).
“Also recorded” adds a separate entry of the source.

What was measured:
[1] = tested on: healthy subjects; assay: Phase 1 IV ganaxolone pharmacodynamics (BIS, EEG) in healthy subjects; format: in vivo, human
Procedure: A Phase I clinical trial evaluating IV ganaxolone formulation was performed. The clinical trial was designed to investigate the safety, pharmacokinetics, and pharmacodynamics of an intravenous bolus of ganaxolone and continuous intravenous infusion of ganaxolone in 30 healthy subjects. Subjects were administered either an intravenous bolus of ganaxolone in an amount of 10-20 mg for a period of 2 minutes to 1 hour, or an intravenous bolus of ganaxolone in an amount of 6 mg for a period of 5 minutes with a continuous intravenous infusion in an amount of 20 mg/hr for a period of 4 hours.
There was little or no delay between the appearance of drug in plasma and a change in the BIS score.

[2] = Phase 2 Study 1042-SE-2001 open-label group, GNX plasma concentration and PK modeling; format: in vivo, human
Procedure: These infusion dosing parameters are expected to result in daily doses of ganaxolone of about ≤714 mg/day and Captisol of about ≤50 grams/day. Based on PK modeling, it is predicted that maximum concentrations of ganaxolone should remain within 1,000 ng/mL during infusion, but some variability is expected due to, for example, differences in subjects' weight.
(§1) As of 22 Mar. 2019, 5 subjects were enrolled into the Study 1042-SE-2001 open-label group under the original protocol that limits daily Captisol exposure at 35 g/day. […] The initial EEG pattern post-infusion initiation was described by study physicians as a “light” burst suppression that was maintained for several hours in all subjects. […] It was observed that when GNX exposure was lowered (20 mg/hr for 2 hours and ending with 10 mg/hr for the remaining 18 hours on Day 1) in order not to exceed this limit, seizure control could not be maintained and seizure activity (but not SE) re-occurred as evidenced by EEG changes. […] Seizure activity relapsed when plasma concentrations of GNX decreased <500 ng/mL in 4 out of 5 subjects.

[3] = Phase 2 Study 1042-SE-2001 open-label group, safety; format: in vivo, human
Procedure: as §1
Subject 015-101 was a person who presented with focal convulsive SE due to a tumor (Day 1). Recent medical history included convulsive seizures, SE, and Glioblastoma multiform of parietal lobe. Subject was administered levetiracetam for SE and lorazepam, diazepam, dexamethasone, and multiple doses of levetiracetam for seizure control prior to study enrollment. On Day 3, the subject was enrolled in the study and started on IV GNX 30 mg bolus dose plus continuous infusion (85 mg/hr). At the start of dose initiation the subject was alert. […] They were arousable to voice but required continuous stimulation to stay awake or follow commands. They maintained their airway and was able to endorse that the numbness had resolved and reported that they no longer felt twitches. […] The subject had significant direction-changing nystagmus and complained of blurry vision. […] During the next 2 hours the subject remained somnolent and was becoming increasingly restless. As per the protocol, GNX was decreased to 40 mg/hr at 2 hours post dose initiation. Approximately 10 to 15 minutes after the infusion rate was decreased to 40 mg/hr, the subject's arousal improved, they became conversational, and wanted to eat. They had no seizures at this time. Vital signs remained stable. During the GNX infusion, concomitant lacosamide was increased due to increased numbness. […] Once the GNX taper was completed the investigator reported there were no sequelae.
Under the protocol amended with the 50 g/day Captisol limit, 1 subject was enrolled in the open-label study as of 26 Mar. 2019. The subject presented with NCSE due to a tumor. The subject failed 3 second-line IV AEDs and qualified for the study based on the study's inclusion/exclusion criteria. Within 3 minutes after starting the IV GNX infusion, the RSE ceased and seizure protection was maintained for the remaining 48 hours of GNX treatment. […] Pharmacokinetic data were unavailable at the time of this report.

[4] = Emergency IND No. 131,642, GNX plasma concentration; format: in vivo; details: human, intravenous, eIND 131,642, Day 1 regimen delivering 900 mg
Procedure: Under eIND No. 131,642, IV GNX was administered to a subject with SRSE who was unable to maintain status cessation with ketamine and barbiturates. The Day 1 dosage regimen delivered 900 mg of GNX, equating to a 900 to 1200 ng/mL plasma concentration of GNX. As the subject could not be maintained in burst suppression, the clinical team was able to utilize EEG changes to gauge the response (FIG. 11). […] However, due to the dosing plan agreed upon with the FDA with a daily Captisol limit of 63 g/day, the initial 120 mg/hr dose on Day 1 could not be maintained for longer than 1 hour and then had to be decreased to the 30 mg/hr dose. The first seizures re-occurred within 15 to 20 minutes of the change in GNX dose from 120 mg/hr to 30 mg/hr.

[5] = tested on: RSE patients; assay: Phase 2 open-label dose range study, efficacy in RSE patients; format: in vivo, human; details: for GNX plasma concentration whose acute maintenance was associated with improved seizure control on EEG: PK/PD relationship, FIGS. 13A-13D
Procedure: Eligible patients were treated with continuous adjunctive IV ganaxolone infusion. Initial dosing included a 3-minute bolus dose (25 or 30 mg) with a continuous infusion at rates ranging from 10 to 85 mg/hour for up to 96-hours, followed by an 18-hour study drug taper.
The study enrolled 17 patients divided among 3 dosing cohorts. The IV solution utilizes Captisol® as an excipient for solubilization of ganaxolone. In an agreement with the Food and Drug Administration (FDA), the Captisol exposure for patients participating in Study 1042-SE-2001 was not to exceed 50 g/day. Given the daily Captisol limit, 3 different doses of GNX IV solution were investigated; 500, 650, and 713 mg/day total GNX referred to as the low, medium, and high dose level cohorts, respectively.

[6] = cited from earlier work
[7] = PK modeling data from 5 subjects
[8] = Medium cohort, 650 mg/day, n = 4
[9] = Target cohort, 713 mg/day, n = 8

## CC(=O)[C@H]1CC[C@H]2[C@@H]3CC[C@H]4C[C@](C)(O)CC[C@]4(C)[C@H]3CC[C@]12C [Ganaxolone, 3α-hydroxy-3β-methyl-5α-pregnan-20-one]
[1]; Phase 1, FIG. 1
  EEG and BIS changes: consistent with sedative/anesthetic effects
[1]; healthy subjects, IV
  bispectral index (BIS) score versus plasma concentration: higher plasma concentration was associated with lower BIS scores
[2]; [7]
  GNX exposure associated with seizure relapse: < 500 ng/mL
  GNX exposure level associated with rapid and complete SE suppression: approximately 1000 ng/mL
[2]; Subject 004-101
  GNX plasma concentration at the time of seizure relapse: < 500 ng/mL
[2]; Subject 006-101
  GNX plasma concentration at the time of seizure relapse: < 500 ng/mL
[2]; Subject 006-102
  GNX plasma concentration at the time of seizure relapse: < 500 ng/mL
[3]; 1 subject, amended protocol, concomitant AEDs
  safety finding related to GNX: increased sedation
[3]; 5 subjects
  GNX-related cardiovascular events requiring pharmacological intervention: no GNX-related cardiovascular events that required pharmacological intervention were observed
  intubation as a direct result of GNX therapy: no subjects had to be intubated as a direct result of GNX therapy
[3]; Subject 015-101, 30 mg bolus, 85 mg/hr, listed as GNX
  adverse observations during infusion: significant somnolence; also recorded: urinary retention with urgency
[4]
  concentration at 1 day: 900 to 1200 ng/mL
[5]; 15 evaluable patients, low, medium and high cohorts
  reduction in EEG seizure burden: rapid and dose-dependent sustained reduction in EEG seizure burden
[5]; Low cohort, 500 mg/day, 1 of 2 (1 died)
  No SE Relapse at anytime during the 4-wk follow up period: 50%
[5]; Low cohort, 500 mg/day, n = 5
  No escalation to IV anesthetics within 24 hrs from infusion initiation(Primary Endpoint): 100%
  No escalation to additional IV AEDs or IV anesthetics for status relapse at any time through 24 hrs after GNX discontinuation: 60%
  Status-free through 24 hrs from infusion initiation: 100%
[5]; Medium cohort, 650 mg/day, 2 of 3 (1 ET)
  No SE Relapse at anytime during the 4-wk follow up period: 67%
[5]; [8]
  No escalation to IV anesthetics within 24 hrs from infusion initiation(Primary Endpoint): 100%
  No escalation to additional IV AEDs or IV anesthetics for status relapse at any time through 24 hrs after GNX discontinuation: 75%
  Status-free through 24 hrs from infusion initiation: 100%
[5]
  GNX plasma concentration whose acute maintenance was associated with improved seizure control on EEG: ≥ 500 ng/mL
[5]; listed as GNX
  GNX plasma concentration whose acute maintenance was associated with improved seizure control on EEG: > 500 ng/mL
[5]; Target cohort, 713 mg/day, 6 of 6 (1ET, 1 died)
  No SE Relapse at anytime during the 4-wk follow up period: 100%
[5]; [9]
  No escalation to IV anesthetics within 24 hrs from infusion initiation(Primary Endpoint): 100%
  No escalation to additional IV AEDs or IV anesthetics for status relapse at any time through 24 hrs after GNX discontinuation: 100%
  Status-free through 24 hrs from infusion initiation: 88%
[5]; all cohorts, 14 patients of 17
  patients not requiring additional IV AEDS or IV anesthetics for status relapse up to 4 weeks: 82%
[5]; all cohorts, 16 patients of 17
  patients who achieved and maintained SE cessation within the first 24-hours: 94%
[5]; all cohorts, n=17
  patients not requiring escalation to an IV anesthetic drug for SE control within the first 24-hours: 100%
[5]; all dose groups, n=15 evaluable patients
  Median time to SE cessation from initiation of GNX treatment: 5 min
[5]; evaluable patients
  patients with SE cessation achieved in <30 min: 14 out of 15
[6]; human plasma following oral administration
  half-life: approximately 20 hours
[6]; human
  Tmax: short
